Legend:
[1] = compound: C1CN(CCC1(C(=O)N[C@@H](CCO)C2=CC=C(C=C2)Cl)N)C3=NC=NC4=C3C=CN4 [Capivasertib]
Summary of the method: (§1)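 In 1536-well plates, cancer cell lines in 7.5 μl DMEM/F12 or RPMI with 10% FBS spent 24 hours at 37°C and 5% CO2 and were then dosed for 72 hours with final DMSO typically 0.2%. Viability was read by CellTiter-Glo 2.0 luminescence and scaled between blank-well and DMSO-well means. The single-agent IC50 was fitted from dose responses using a logistic curve in a non-linear mixed effects model, and that logistic curve had two parameters.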

[2] = compound: C=CCn1c(=O)c2cnc(Nc3ccc(N4CCN(C)CC4)cc3)nc2n1-c1cccc(C(C)(C)O)n1 [AZD1775]
Summary of the method: as §1

[3] = compound: CC(=O)Nc1cccc(-n2c(=O)n(C3CC3)c(=O)c3c(Nc4ccc(I)cc4F)n(C)c(=O)c(C)c32)c1 [Trametinib]; details: max 1 µM
Summary of the method: as §1

[4] = compound: CC(=O)c1c(C)c2cnc(Nc3ccc(N4CCNCC4)cn3)nc2n(C2CCCC2)c1=O [Palbociclib]; details: max 10 µM
Summary of the method: as §1

[5] = compound: CC(C)n1c(=O)n(C)c2cnc3cc(F)c(-c4ccc(OCCCN5CCCCC5)nc4)cc3c21 [AZD1390]; details: max 0.3 µM
Summary of the method: as §1

[6] = compound: CC1(C)CCC(CN2CCN(c3ccc(C(=O)NS(=O)(=O)c4ccc(NCC5CCOCC5)c([N+](=O)[O-])c4)c(Oc4cnc5[nH]ccc5c4)c3)CC2)=C(c2ccc(Cl)cc2)C1 [Venetoclax]; details: max 1 µM
Summary of the method: as §1

[7] = compound: CC1=C(C(=CC=C1)Cl)NC(=O)C2=CN=C(S2)NC3=CC(=NC(=N3)C)N4CCN(CC4)CCO [Dasatinib]; details: max 2 µM
Summary of the method: as §1

[8] = compound: CC1=CN2[C@@H](C1)C=NC3=CC(=C(C=C3C2=O)OC)OCCCCCOC4=C(C=C5C(=C4)N=C[C@@H]6CC(=CN6C5=O)C)OC [SG3199]; details: max 0.001 µM
Summary of the method: as §1

[9] = compound: CCN(CCO)CCCOc1ccc2c(Nc3cc(CC(=O)Nc4cccc(F)c4)[nH]n3)ncnc2c1 [AZD2811]; details: max 1 µM
Summary of the method: as §1

[10] = compound: CCc1c2c(nc3ccc(O)cc13)-c1cc3c(c(=O)n1C2)COC(=O)[C@]3(O)CC [SN-38]; details: max 0.3 µM
Summary of the method: as §1

[11] = compound: CN(C)CCCOc1ccc(-c2ccc3ncc4c(c3c2)n(C2CCOCC2)c(=O)n4C)cn1 [AZD0156]
Summary of the method: as §1

[12] = compound: CN(CC[C@H](CSC1=CC=CC=C1)NC2=C(C=C(C=C2)S(=O)(=O)NC(=O)C3=CC=C(C=C3)N4CCC(CC4)[C@H](C5=CC=CC=C5C6=CC=C(C=C6)Cl)O)S(=O)(=O)C(F)(F)F)CCO [AZD4320]; details: max 1 µM
Summary of the method: as §1

[13] = compound: COc1cc(Nc2ncc3c(n2)-c2ccc(Cl)cc2C(c2c(F)cccc2OC)=NC3)ccc1C(=O)O [Alisertib]; details: max 10 µM
Summary of the method: as §1

[14] = compound: COc1cc2ncnc(Nc3ccc(F)c(Cl)c3)c2cc1OCCCN1CCOCC1 [Gefitinib]; details: max 10 µM
Summary of the method: as §1

[15] = compound: COc1cccc(OCCCN)c1-c1cc(Nc2cnc(C#N)cn2)n[nH]1 [Prexasertib]; details: max 1 µM
Summary of the method: as §1

[16] = compound: COc1cccc2c1C(=O)c1c(O)c3c(c(O)c1C2=O)C[C@@](O)(C(=O)CO)C[C@@H]3O[C@H]1C[C@H](N)[C@H](O)[C@H](C)O1 [Doxorubicin]; details: max 1 µM
Summary of the method: as §1

[17] = compound: COc1nnc2ccc(N3CCC(c4ccc(OCCN5CCN(C)C(=O)[C@H]5C)cc4)CC3)nn12 [AZD5153]; details: max 1 µM
Summary of the method: as §1

[18] = compound: CS(=O)(=O)CCNCc1ccc(-c2ccc3ncnc(Nc4ccc(OCc5cccc(F)c5)c(Cl)c4)c3c2)o1 [Lapatinib]; details: max 10 µM
Summary of the method: as §1

[19] = compound: C[C@@H](Nc1cc(F)cc(F)c1)c1cc(C(=O)N(C)C)cc2c(=O)cc(N3CCOCC3)oc12 [AZD8186]; details: max 3 µM
Summary of the method: as §1

[20] = compound: C[C@@H](Oc1cc(-c2cnn(C3CCNCC3)c2)cnc1N)c1c(Cl)ccc(F)c1Cl [Crizotinib]; details: max 10 µM
Summary of the method: as §1

[21] = compound: C[C@@H](c1ccc2nccn2c1)n1nnc2ncc(-c3cnn(C)c3)nc21 [Savolitinib]; details: max 1 µM
Summary of the method: as §1

[22] = compound: C[C@@H]1COCCN1C2=NC(=NC(=C2)C3(CC3)[S@](=N)(=O)C)C4=C5C=CNC5=NC=C4 [AZD6738]; details: max 10 µM
Summary of the method: as §1

[23] = compound: Cc1c2c(nn1C)CSCc1cc(n(C)n1)CSc1cc(c3ccccc3c1)OCCCc1c(C(=O)O)n(C)c3c-2c(Cl)ccc13 [AZD5991]; details: max 1 µM
Summary of the method: as §1

[24] = compound: Cc1cc2ncnn2cc1Nc1ncc2c(n1)n(C1CCOCC1)c(=O)n2C [AZD7648]; details: max 10 µM
Summary of the method: as §1

[25] = compound: Cc1nc(-c2cn3c(n2)-c2ccc(-c4cnn(C(C)(C)C(N)=O)c4)cc2OCC3)n(C(C)C)n1 [Taselisib]; details: max 10 µM
Summary of the method: as §1

[26] = compound: Cn1cnc2c(F)c(Nc3ccc(Br)cc3Cl)c(C(=O)NOCCO)cc21 [Selumetinib]
Summary of the method: as §1

[27] = compound: O=C(c1cc(Cc2n[nH]c(=O)c3ccccc23)ccc1F)N1CCN(C(=O)C2CC2)CC1 [Olaparib]; details: max 10 µM
Summary of the method: as §1

Cell Line | IC50, cell viability 72 h ([1]; max 10 µM) | IC50, cell viability 72 h ([2]; max 3 µM) | IC50, cell viability 72 h [3] | IC50, cell viability 72 h [4] | IC50, cell viability 72 h [5] | IC50, cell viability 72 h [6] | IC50, cell viability 72 h [7] | IC50, cell viability 72 h [8] | IC50, cell viability 72 h [9] | IC50, cell viability 72 h [10] | IC50, cell viability 72 h ([11]; max 3 µM) | IC50, cell viability 72 h [12] | IC50, cell viability 72 h [13] | IC50, cell viability 72 h [14] | IC50, cell viability 72 h [15] | IC50, cell viability 72 h [16] | IC50, cell viability 72 h [17] | IC50, cell viability 72 h [18] | IC50, cell viability 72 h [19] | IC50, cell viability 72 h [20] | IC50, cell viability 72 h [21] | IC50, cell viability 72 h [22] | IC50, cell viability 72 h [23] | IC50, cell viability 72 h [24] | IC50, cell viability 72 h [25] | IC50, cell viability 72 h ([26]; max 10 µM) | IC50, cell viability 72 h [27] | IC50, cell viability 72 h ([1]; max 3 µM) | IC50, cell viability 72 h ([2]; max 1 µM) | IC50, cell viability 72 h ([11]; max 1 µM) | IC50, cell viability 72 h ([26]; max 3 µM)
JIMT-1 (Breast Carcinoma) | > 10000 nM | 1080 nM | > 1000 nM | > 10000 nM | > 300 nM | > 1000 nM | 1080 nM | > 1 nM | > 1000 nM | > 300 nM | > 3000 nM | > 1000 nM | > 10000 nM | > 10000 nM | 85.1 nM | > 1000 nM | > 1000 nM | > 10000 nM | > 3000 nM | > 10000 nM | > 1000 nM | 5640 nM | > 1000 nM | > 10000 nM | 4290 nM | > 10000 nM | > 10000 nM | – | – | – | –
EW-16 (Ewing's Sarcoma) | > 10000 nM | 581 nM | > 1000 nM | > 10000 nM | > 300 nM | > 1000 nM | > 2000 nM | > 1 nM | 837 nM | 3.19 nM | > 3000 nM | > 1000 nM | 2280 nM | > 10000 nM | 726 nM | 71.9 nM | > 1000 nM | > 10000 nM | > 3000 nM | > 10000 nM | > 1000 nM | > 10000 nM | > 1000 nM | > 10000 nM | 5720 nM | > 10000 nM | > 10000 nM | – | – | – | –
G-402 (Other Solid Carcinomas) | 8690 nM | 2700 nM | 563 nM | > 10000 nM | > 300 nM | > 1000 nM | 319 nM | > 1 nM | 475 nM | 27 nM | > 3000 nM | > 1000 nM | 1970 nM | > 10000 nM | 523 nM | 123 nM | 98.5 nM | > 10000 nM | > 3000 nM | 7960 nM | > 1000 nM | 7010 nM | 251 nM | > 10000 nM | 2420 nM | > 10000 nM | > 10000 nM | – | – | – | –
TE-10 (Esophageal Squamous Cell Carcinoma) | – | – | 825 nM | – | – | > 1000 nM | – | > 1 nM | > 1000 nM | 37.1 nM | – | > 1000 nM | 2930 nM | – | 11.9 nM | 820 nM | – | – | > 3000 nM | – | – | 1600 nM | 290 nM | > 10000 nM | 941 nM | – | > 10000 nM | > 3000 nM | 381 nM | > 1000 nM | > 3000 nM

— the supplement of paper PMC11061612
